The subject of this test is p-DNA-PKcs (S2056). Description: Immunofluorescence of p-DNA-PKcs (S2056) nuclear foci in early on-treatment PDX tumors. Type of test: in vivo, NSG mice. As to conditions: with or without MEKi; Mel_PDX1, 11 days; FIG. 13F. The source says: FIGS. 13A-13H. In vivo impacts of DNA-PKi when combined with MAPKi. FIGS. 13A and 13B: Long-term follow-up of tumor volumes (13A, BRAFi+MEKi, n=5 tumors; BRAFi+MEKi+DNA-PKi, n=6 tumors) (13B, MEKi, n=6 tumors; MEKi+DNAP-PKi, n=6 tumors) and average mice body weights for 13A and 13B. Related to experiments in FIGS. 7B and 7E, respectively. FIGS. 13C and 13D, Tumor volumes (mean±SEM) of two examples of tumor models treated short-term with vehicle or indicated single versus combined agents. Inhibitors and dosages are identical to those in FIGS. 7C and 7E, respectively. The numbers of tumors and their sizes are shown in the photographs (right) taken at the times of tumor harvest (end points). FIGS. 13E to 13G: Immunofluorescence of p-ERK (13E), p-DNA-PKcs (S2056) (13F), or γH2AX (13G) levels in Mel_PDX1 tumor model, treated with vehicle or indicated single versus combined agents for 11 days (shown in 13C). DAPI, nuclear stain. Scale bar, 50 μm (13E) and 20 μm (13F and 13G). Representative images shown for two tumors analyzed per group. Quantification of p-DNA-PKcs signals obtained by taking the average of positively stained foci per nucleus (13F, representative of 4 fields). Quantification of γH2AX signals analyzed either by percentage of cells with γH2AX foci or percentage of cells with greater than 5 γH2AX foci (13G, representative of 4 fields). […]

Turning to `O=c1cc(N2CCOCC2)oc2c1ccc1ccccc12` [NU7026], the “nuclear p-DNA-PKCS foci” value is given as “suppressed nuclear p-DNA-PKCS foci”.

For the origin of these results see US20260240842A1, “METHODS TO PREVENT THERAPY RESISTANCE IN MELANOMA VIA BLOCKING GENOMIC INSTABILITY” (THE REGENTS OF THE UNIVERSITY OF CALIFORNIA, priority 2022, published 2026).
